The values that follow come from PubChem BioAssay AID1259407 (Chemical Carcinogenesis Research Information System (CCRIS), 2018).

Activity calls are given as the source filed them. The rule behind the calls is not given here.

In the data set the test system is CCRIS mutagenicity, Ames/micronucleus/aberration tests. As to the kind of experiment: CCRIS mutagenicity studies.
[1] abbreviates: Test System: AMES SALMONELLA TYPHIMURIUM, Strain/Indicator: TA100, Metabolic Activation: NONE, Method: PREINCUBATION

Take `Oc1cccc2c1sc1ccccc12`: the mutagenic call (Test System: CHINESE HAMSTER OVARY, Strain/Indicator: CHO-K1-BH4 (HGPRT)/6-THIOGUANINE, Metabolic Activation: RAT, LIVER, S-9, AROCLOR (4%)) is “active; positive”.

Consider `COc1cc(-c2ccc(N/N=C3\C=C(S(=O)(=O)O)c4ccccc4C3=O)c(OC)c2)ccc1N=Nc1cc(S(=O)(=O)O)c2ccccc2c1N`, for which the mutagenic call was “inactive; negative” (Test System: AMES SALMONELLA TYPHIMURIUM, Strain/Indicator: TA97, Metabolic Activation: HAMSTER, LIVER, S-9, AROCLOR 1254 (10 OR 30%), Method: PREINCUBATION); “inactive; negative” (Test System: AMES SALMONELLA TYPHIMURIUM, Strain/Indicator: TA97, Metabolic Activation: NONE, Method: PREINCUBATION); “inactive; negative” (Test System: AMES SALMONELLA TYPHIMURIUM, Strain/Indicator: TA97, Metabolic Activation: RAT, LIVER, S-9, AROCLOR 1254 (10 OR 30%), Method: PREINCUBATION); “inactive; negative” (Test System: AMES SALMONELLA TYPHIMURIUM, Strain/Indicator: TA98, Metabolic Activation: HAMSTER, LIVER, S-9, AROCLOR 1254 (10 OR 30%), Method: PREINCUBATION); “inactive; negative” (Test System: AMES SALMONELLA TYPHIMURIUM, Strain/Indicator: TA98, Metabolic Activation: NONE, Method: PREINCUBATION); “inactive; negative” (Test System: AMES SALMONELLA TYPHIMURIUM, Strain/Indicator: TA98, Metabolic Activation: RAT, LIVER, S-9, AROCLOR 1254 (10 OR 30%), Method: PREINCUBATION). Further, the mutagenic call is, setting by setting: (Test System: AMES SALMONELLA TYPHIMURIUM, Strain/Indicator: TA100, Metabolic Activation: HAMSTER, LIVER, S-9, AROCLOR 1254 (10 OR 30%), Method: PREINCUBATION) “inactive; negative”; under setting [1], “inactive; negative”; (Test System: AMES SALMONELLA TYPHIMURIUM, Strain/Indicator: TA100, Metabolic Activation: RAT, LIVER, S-9, AROCLOR 1254 (10 OR 30%), Method: PREINCUBATION) “inactive; negative”; (Test System: AMES SALMONELLA TYPHIMURIUM, Strain/Indicator: TA1535, Metabolic Activation: HAMSTER, LIVER, S-9, AROCLOR 1254 (10 OR 30%), Method: PREINCUBATION) “inactive; negative”; (Test System: AMES SALMONELLA TYPHIMURIUM, Strain/Indicator: TA1535, Metabolic Activation: NONE, Method: PREINCUBATION) “inactive; negative”; (Test System: AMES SALMONELLA TYPHIMURIUM, Strain/Indicator: TA1535, Metabolic Activation: RAT, LIVER, S-9, AROCLOR 1254 (10 OR 30%), Method: PREINCUBATION) “inactive; negative”. Moreover, the mutagenic call is “inactive; negative” (Test System: AMES SALMONELLA TYPHIMURIUM, Strain/Indicator: TA1538, Metabolic Activation: HAMSTER, LIVER, S-9, Method: STANDARD PLATE) and “inactive; negative” (Test System: AMES SALMONELLA TYPHIMURIUM, Strain/Indicator: TA1538, Metabolic Activation: RAT, LIVER, S-9, AROCLOR 1254, Method: STANDARD PLATE).

Regarding `CC(O)CN(CC(C)O)N=O` (stereo unspecified), the mutagenic call is, setting by setting: (Test System: AMES SALMONELLA TYPHIMURIUM, Strain/Indicator: TA100, Metabolic Activation: HAMSTER, LIVER, S-9, 3-METHYLCHOLANTHRENE, Method: PREINCUBATION) “inactive; negative”; (Test System: AMES SALMONELLA TYPHIMURIUM, Strain/Indicator: TA100, Metabolic Activation: HAMSTER, LIVER, S-9, PHENOBARBITAL, Method: PREINCUBATION) “active; positive”; (Test System: AMES SALMONELLA TYPHIMURIUM, Strain/Indicator: TA100, Metabolic Activation: HAMSTER, LIVER, S-9, Method: PREINCUBATION) “inactive; negative”; (Test System: AMES SALMONELLA TYPHIMURIUM, Strain/Indicator: TA100, Metabolic Activation: HUMAN, LIVER, S-9, Method: PREINCUBATION) “inactive; negative”; (Test System: AMES SALMONELLA TYPHIMURIUM, Strain/Indicator: TA100, Metabolic Activation: MONKEY, LIVER, S-9, Method: PREINCUBATION) “inactive; negative”; (Test System: AMES SALMONELLA TYPHIMURIUM, Strain/Indicator: TA100, Metabolic Activation: MOUSE, LIVER, S-9, 3-METHYLCHOLANTHRENE, Method: PREINCUBATION) “inactive; negative”. Further, the mutagenic call reads like this: (Test System: AMES SALMONELLA TYPHIMURIUM, Strain/Indicator: TA100, Metabolic Activation: MOUSE, LIVER, S-9, PHENOBARBITAL, Method: PREINCUBATION) “active; positive”; (Test System: AMES SALMONELLA TYPHIMURIUM, Strain/Indicator: TA100, Metabolic Activation: MOUSE, LIVER, S-9, Method: PREINCUBATION) “inactive; negative”; under setting [1], “inactive; negative”; (Test System: AMES SALMONELLA TYPHIMURIUM, Strain/Indicator: TA100, Metabolic Activation: RABBIT, LIVER, S-9, Method: PREINCUBATION) “inactive; negative”; (Test System: AMES SALMONELLA TYPHIMURIUM, Strain/Indicator: TA100, Metabolic Activation: RAT, LIVER, CYTOSOL, PCB, Method: PREINCUBATION) “inactive; negative”; (Test System: AMES SALMONELLA TYPHIMURIUM, Strain/Indicator: TA100, Metabolic Activation: RAT, LIVER, MICROSOMES AND CYTOSOL, PCB, Method: PREINCUBATION) “active; positive”. Further, the mutagenic call is “active; positive” (Test System: AMES SALMONELLA TYPHIMURIUM, Strain/Indicator: TA100, Metabolic Activation: RAT, LIVER, MICROSOMES AND G6PDH, PCB, Method: PREINCUBATION); “inactive; negative” (Test System: AMES SALMONELLA TYPHIMURIUM, Strain/Indicator: TA100, Metabolic Activation: RAT, LIVER, MICROSOMES, PCB, Method: PREINCUBATION); “inactive; negative” (Test System: AMES SALMONELLA TYPHIMURIUM, Strain/Indicator: TA100, Metabolic Activation: RAT, LIVER, S-9 (HEATED), PCB, Method: PREINCUBATION); “inactive; negative” (Test System: AMES SALMONELLA TYPHIMURIUM, Strain/Indicator: TA100, Metabolic Activation: RAT, LIVER, S-9 (WITHOUT NADP+), PCB, Method: PREINCUBATION); “inactive; negative” (Test System: AMES SALMONELLA TYPHIMURIUM, Strain/Indicator: TA100, Metabolic Activation: RAT, LIVER, S-9, 3-METHYLCHOLANTHRENE, Method: PREINCUBATION); “active; positive” (Test System: AMES SALMONELLA TYPHIMURIUM, Strain/Indicator: TA100, Metabolic Activation: RAT, LIVER, S-9, AROCLOR 1254, Method: PREINCUBATION). The mutagenic call (Test System: AMES SALMONELLA TYPHIMURIUM, Strain/Indicator: TA100, Metabolic Activation: RAT, LIVER, S-9, PCB, Method: PREINCUBATION) is “active; positive”; the mutagenic call (Test System: AMES SALMONELLA TYPHIMURIUM, Strain/Indicator: TA100, Metabolic Activation: RAT, LIVER, S-9, PHENOBARBITAL, Method: PREINCUBATION) is “active; positive”; the mutagenic call (Test System: AMES SALMONELLA TYPHIMURIUM, Strain/Indicator: TA100, Metabolic Activation: RAT, LIVER, S-9, Method: PREINCUBATION) was “inactive; negative”; the mutagenic call (Test System: AMES SALMONELLA TYPHIMURIUM, Strain/Indicator: TA100, Method: PREINCUBATION) was “active; positive”; the mutagenic call (Test System: AMES SALMONELLA TYPHIMURIUM, Strain/Indicator: TA104, Metabolic Activation: RAT, LIVER, S-9, AROCLOR 1254, Method: PREINCUBATION) is “inactive; negative”; the mutagenic call (Test System: AMES SALMONELLA TYPHIMURIUM, Strain/Indicator: TA1535, Metabolic Activation: RAT, LIVER, S-9, AROCLOR 1254, Method: PREINCUBATION) was “active; positive”. For the same compound, the mutagenic call runs as follows: (Test System: AMES SALMONELLA TYPHIMURIUM, Strain/Indicator: TA1975, Metabolic Activation: RAT, LIVER, S-9, AROCLOR 1254, Method: PREINCUBATION) “active; positive”; (Test System: CHINESE HAMSTER V-79, Strain/Indicator: V-79/OUABAIN, Metabolic Activation: HAMSTER, HEPATOCYTES, Method: CELL-MEDIATED) “active; positive”.
